Measurements: patent US20180360090A1, “NUTRITIONAL COMPOSITIONS AND INFANT FORMULAS TO PROMOTE MYELINATION IN THE BRAIN” (NESTEC S.A., priority 2015, published 2018)

System: brain myelination (myelin water fraction)
Assay: Cross-sectional correlation analysis (GLM) of infant formula nutrient composition against brain myelination, measured as MWF by mcDESPOT MRI
Format: in vivo, human
Details: for nutritional drivers for myelination (final general linear model): children up to 5 years fed different infant formulas during infancy, voxel-wise correlations, p<0.05 corrected
Experimental: MRI brain scans of infants and children between 0 and 5 years were acquired using a white matter imaging technique. This technique provides a quantitative measure, the Myelin Water Fraction (MWF), which is a surrogate marker of myelin content. When mapped as a function of time across early childhood, myelination trajectories can be generated.
Infant formula composition: six infant formulas fed to infants participating in study were analyzed for their composition/level of myelin-relevant nutrients.
Infants included in this study were drawn from a larger longitudinal study of normal brain and behavioral development: the Brown university Assessment of Myelination and Behavior Across Maturation (BAMBAM). To focus on neurotypical development, children with known potential risk factors for learning, neurologic, or psychiatric disorders were specifically excluded during recruitment and enrollment. Thus, children with in utero alcohol or illicit substance exposure, premature (<37 weeks gestation) or multiple birth, fetal ultrasound abnormalities, complicated pregnancy (e.g., preeclampsia), APGAR scores <8, NICU admission, neurological disorder (e.g., head injury, epilepsy), psychiatric or developmental disorders in the infant, parents or siblings (including maternal depression requiring medication) were excluded. Ongoing screenings, such as the MCAT for autism, or CBCL for behavioral problems, were further used to remove enrolled children with clinically concerning behaviors or overt medical conditions (such as autism spectrum disorders).
A combination of retrospective and prospective data were acquired from parents via detailed medical histories and parental interview on type of infant formula used, percentage of breastfeeding to formula feeding, and length of exclusive breastfeeding. This information was updated at each study visit, which occurred approximately every 6 months for children under 2 years, and yearly for older children. Using this information, children were categorized into one of 2 groups: #1. Exclusively formula-fed; and #2. Exclusively breastfed for at least 90 days (3 months). Children who were fed a combination of breastmilk and formula within 3 months were excluded from our analysis. Infants within the exclusively formula-fed group were further sub-divided based on parental reports of the main infant formula used throughout the first 3 months. Main formula was defined as that given 90% of the time or more (in the case were parents used an alternate brand during vacation, for example).
Using these criteria, 94 exclusively formula-fed infants and young children were selected into group #1. These included 13 children who received formula #2; 28 who received formula #5; 8 who received formula #3; 39 who received formula #4; 5 who received formula #1 and 1 who received formula #6. A sample of 52 exclusively breast-fed infants were also selected and matched to the over formula-fed group with regards to mean age, gestation duration, birth weight, male:female ratio, ethnicity ratio, maternal education, family size, and number of languages spoken in the home (in addition to English).
Each infant was scanned using the mcDESPOT (multicomponent Driven Equilibrium Single Pulse Observation of T1 and T2) white matter imaging technique Deoni et al. (Magn. Reson. Med. 2008, 60:1372-1387), which provides a quantitative measure of the myelin water fraction (MWF) at each imaging point throughout the brain. All infants were scanned during natural (i.e. non-sedated) sleep using acoustically-muffled mcDESPOT imaging protocols. Total imaging times ranged from 19 minutes for the youngest toddlers to 24 minutes for the older 4 year-old children.
All data were acquired on a Siemens 3T Tim Trio scanner equipped with a 12 channel head RF array.

Compound	nutritional drivers for myelination (final general linear model)	association with myelination (myelin water fraction) over time in the brain (children up to 5 years fed different infant formulas, in particular in the visual cortex)
Vitamin B12	identified drivers	
C[N+](C)(C)CCO [Choline]	identified drivers	
CCCCC/C=C\C/C=C\C/C=C\C/C=C\CCCC(=O)O [ARA, arachidonic acid]		significant association with myelination
[Mg] [Magnesium]	identified drivers	
[Ca] [Calcium]	identified drivers	
sphingomyelin	identified drivers	
Iron	identified drivers	
[P] [Phosphorus]	identified drivers	
Zinc	identified drivers	
